Values quoted from earlier work as cited in patent US8273362B2, “Ophthalmic emulsions containing prostaglandins” (Novagali Pharma S.A., priority 2004, dated 2012).

Conditions: at 0.3% w/v

| Compound | Safety for ocular administration |
| --- | --- |
| CCCCCCCC/C=C\CCCCCCCCN [oleylamine] | safe |
| CCCCCCCCCCCCCCCCCCN [stearylamine] | safe |

Conditions: ophthalmic preparations

| Compound | Toxicity of long term use |
| --- | --- |
| benzalkonium chloride [BAK] | important toxicity |

Conditions: not given

| Solubility in water | Compound |
| --- | --- |
| almost insoluble in water | CCCCC[C@H](O)/C=C/[C@H]1[C@H](O)CC(=O)[C@H]1C/C=C\CCCC(=O)O [8-isoprostaglandinE2] |
| almost insoluble in water | CCNC(=O)CCC/C=C\C[C@@H]1[C@@H](/C=C/[C@@H](O)CCc2ccccc2)[C@H](O)C[C@@H]1O [Bimatoprost, bimatoprost] |
| almost insoluble in water | CC(C)OC(=O)CCC/C=C\C[C@@H]1[C@@H](CC[C@@H](O)CCc2ccccc2)[C@H](O)C[C@@H]1O [Latanoprost, latanoprost] |
| almost insoluble in water | CC(C)OC(=O)CCC/C=C\C[C@@H]1[C@@H](/C=C/[C@@H](O)COc2cccc(C(F)(F)F)c2)[C@H](O)C[C@@H]1O [Travoprost, travoprost] |
| almost insoluble in water | CC(C)OC(=O)CCC/C=C\C[C@@H]1[C@@H](/C=C/C(F)(F)COc2ccccc2)[C@H](O)C[C@@H]1O [tafluprost] |
| almost insoluble in water | CCCCCCCC(=O)CC[C@@H]1[C@@H](C/C=C\CCCC(=O)OC(C)C)[C@@H](O)C[C@H]1O [unoprostone isopropyl] |
